The target of assay [1] is T1, FAP activity on WI-38 fibroblast surfaces (Homo sapiens, UniProt Q12884).
T1 construct: host or cells: WI-38 fibroblasts
T1 sequence (Q12884 1-760): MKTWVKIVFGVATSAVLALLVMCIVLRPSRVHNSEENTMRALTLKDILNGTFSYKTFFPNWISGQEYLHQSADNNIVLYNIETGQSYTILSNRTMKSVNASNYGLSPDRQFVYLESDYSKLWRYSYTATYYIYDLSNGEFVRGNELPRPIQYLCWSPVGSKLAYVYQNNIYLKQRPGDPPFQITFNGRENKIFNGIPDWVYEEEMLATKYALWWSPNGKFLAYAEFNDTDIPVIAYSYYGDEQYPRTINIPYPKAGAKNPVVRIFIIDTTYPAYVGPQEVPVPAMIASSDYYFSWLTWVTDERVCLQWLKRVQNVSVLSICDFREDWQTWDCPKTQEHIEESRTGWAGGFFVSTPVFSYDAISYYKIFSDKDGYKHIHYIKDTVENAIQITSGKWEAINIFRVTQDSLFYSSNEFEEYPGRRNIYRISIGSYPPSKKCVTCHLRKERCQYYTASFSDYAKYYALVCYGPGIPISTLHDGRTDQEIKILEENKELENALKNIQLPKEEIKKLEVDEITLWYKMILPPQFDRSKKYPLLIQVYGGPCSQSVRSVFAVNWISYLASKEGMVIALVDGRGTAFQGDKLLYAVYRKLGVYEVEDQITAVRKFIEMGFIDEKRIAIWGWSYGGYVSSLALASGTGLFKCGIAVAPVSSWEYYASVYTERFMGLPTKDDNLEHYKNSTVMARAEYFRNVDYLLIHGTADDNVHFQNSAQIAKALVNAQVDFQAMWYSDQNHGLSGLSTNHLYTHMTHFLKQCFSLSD
The assay is described as follows: Whole cell activity assay, cleavage of C95 on WI-38 fibroblasts. Type of assay: cell-based. To be noted: substrate C95, inhibitor 10 μM, 1 μM or 100 nM added at two hours. Here is the method:
WI-38 fibroblasts were grown on plastic, washed once with HBSS, after which the M83 inhibitor 10 μM in HBSS was added at zero time to one set, and buffer only to the other four sets. The fluorescent substrate C95 was added to all sets of wells and Δ fluorescence/min, reflecting cleavage of C95 over time, was allowed to proceed for two hours when 10 μM, 1 μM or 100 nM of the M83 inhibitor was added to each of three sets of wells.
Whole cell activity assays: Cells were cultured in normal growth media unless otherwise stated. […] Ten μl of fluorescent substrate, C95 were added to give a final concentration of 125 μM, and fluorescence was measured with time at 360/460 nm excitation/emission wavelengths using an FL600 microplate fluorescence reader (Bio-tek Instruments). Fluorescence units were converted to FAP units/100,000 cells by using a conversion factor determined from an APCE standard curve of prolyl-specific endopeptidase activity, such that 1 FAP unit is equivalent to the fluorescence produced by 1 ng of APCE/min. Since FAP and POP cleave the C95 substrate at an equivalent rate, both FAP and POP activities are expressed as FAP units in all figures.

Assay [2] has as its system human lung adenocarcinoma epithelial cells. Put plainly: Lung cancer xenografts in nude mice. In kind it is in vivo. The method, then: Mice were given a 50 μl injection into each hind leg consisting of human lung adenocarcinoma epithelial cells (2×10^6 cells) suspended in Matrigel™. After ten days the tumors had grown to an estimated 40 mm^3, so M83 treatment was initiated (day 0 in graph). For the M83 treatment group, mice were given a daily intraperitoneal injection of 26.5 micrograms of M83 dissolved in 20 microliters of sterile saline. The mice of the control group were given an intraperitoneal injection of 20 microliters of sterile saline. […] The treatment groups consisted of three mice each with two tumors per mouse.

“Also recorded” adds a separate entry of the source.

For `CC(=O)N[C@@H](CCCNC(=N)N)C(=O)NCCOCCOCC(=O)N[C@H](C)C(=O)N1CCC[C@H]1B(O)O` [Compound M83, acetyl-Arg-AEEA-(D)Ala-(L)boroPro], in assay [1], the “inhibition of FAP proteolytic activity on the cell surface” value is “instantly, and essentially totally, inhibited; also recorded: instantly abolished endopeptidase activity”. In assay [2] (daily intraperitoneal 26.5 micrograms, nude mice, versus saline control), the tumor growth entry is “failed to progress”. Moreover, in assay [2] (day 28 of treatment versus day zero), the average tumor volume entry was “no greater than on day zero”. In addition, the tumors completely disappeared entry in assay [2] (six tumors in treatment group, 28 days) was “one of the six tumors”.

The values above are taken from patent US9688722B2, “Substrates and inhibitors of prolyl oligopeptidase and methods of use” (The Board of Regents of the University of Oklahoma, priority 2012, dated 2017).
